Assays:
[1] = Cytotoxicity test with CellTiter Glo; assay type: cell-based; conditions: human, HepG2.2.15 cells, highest concentration 150 μM, read-out: CC50 values of the compounds of the invention
Procedure: Test 2: Cytotoxicity and Selectivity Index
Methods of Testing Cytotoxicity and Selectivity Index
The serial diluted compound was added to a 384 wells plate at 50 μL HepG2.2.15 cell per well (3000 cells per well), the highest final concentration in the experiment is 150 μM (200 fold dilution). The plate was cultured at 37° C. in an incubator with CO2 for 4 days, and cytotoxicity of the compound was detected using CellTiter Glo agent.
The cytotoxicity of the compound was calculated using the following formulate, cytotoxicity (%)=100−(detection value/mean of DMSO control wells values×100) CC50 values were calculated by a four parametric nonlinear regression model using Graphpad Prism 5 software to manage concentration−cytotoxicity (%).

HBV = experiment: Test of anti HBV activity in vitro (viral DNA by qPCR); assay type: cell-based; conditions: Hepatitis B virus; HepG2.2.15 cells, viral DNA in cell culture supernatant by qPCR; read-out: EC50 values of the compound of the invention on viral replication
Outline: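 HepG2.2.15 cells (integrated HBV genome) were grown to confluence, then treated with compound in 4-fold dilutions from 4 μM final (0.5% DMSO). Secreted viral DNA in supernatant was quantified by SYBR qPCR against an HBV plasmid standard curve; EC50 from four-parameter nonlinear regression of concentration versus copy number.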

Structure (SMILES)	CC50 at 4 days [1] [µM]	EC50 (HBV) [nM]
COC(=O)C1=C(CN2CCN3C(=O)N(c4ccc(Oc5ccc(C(=O)NC(C)(C)CO)cc5)cc4)C[C@@H]3C2)NC(c2nccs2)=N[C@H]1c1ccc(F)cc1Cl [Example 68, (R)-methyl 4-(2-chloro-4-fluorophenyl)-6-(((S)-2-(4-(4-((1-hydroxy-2-methylprop-2-yl)carbamoyl)phenoxy)phenyl)-3-oxohexahydroimidazo[1,5-a]pyrazin-7(1H)-yl)methyl)-2-(thiazol-2-yl)-1,4-dihydropyrimidine-5-carboxylate]	> 150	11.1
COCC(C)(C)NC(=O)c1ccc(Oc2ccc(N3C[C@@H]4CN(CC5=C(C(=O)OC)[C@H](c6ccc(F)cc6Cl)N=C(c6nccs6)N5)CCN4C3=O)cc2)cc1 [Example 70, (R)-methyl 4-(2-chloro-4-fluorophenyl)-6-(((S)-2-(4-(4-((1-methoxy-2-methylprop-2-yl)carbamoyl)phenoxy)phenyl)-3-oxohexahydroimidazo[1,5-a]pyrazin-7(1H)-yl)methyl)-2-(thiazol-2-yl)-1,4-dihydropyrimidine-5-carboxylate]	> 150	15.9
COC(=O)C1=C(CN2CCN3C(=O)N(c4ccc(Oc5ccc(C(=O)NCCCC(=O)N(C)C)cc5)cc4)C[C@@H]3C2)NC(c2nccs2)=N[C@H]1c1ccc(F)cc1Cl [Example 71, (R)-methyl 4-(2-chloro-4-fluorophenyl)-6-(((S)-2-(4-(4-((4-(dimethylamino)-4-oxobutyl)carbamoyl)phenoxy)phenyl)-3-oxohexahydroimidazo[1,5-a]pyrazin-7(1H)-yl)methyl)-2-(thiazol-2-yl)-1,4-dihydropyrimidine-5-carboxylate]	> 150	16.6
COC(=O)C1=C(CN2CCN3C(=O)N(c4ccc(Oc5ccc(C(=O)NC(C)CO)cc5)cc4)C[C@@H]3C2)NC(c2nccs2)=N[C@H]1c1ccc(F)cc1Cl (stereo partly drawn) [Example 72, (4R)-methyl 4-(2-chloro-4-fluorophenyl)-6-(((8aS)-2-(4-(4-((1-hydroxyprop-2-yl)carbamoyl)phenoxy)phenyl)-3-oxohexahydroimidazo[1,5-a]pyrazin-7(1H)-yl)methyl)-2-(thiazol-2-yl)-1,4-dihydropyrimidine-5-carboxylate]	> 150	21.2
COC(=O)C1=C(CN2CCN3C(=O)N(c4ccc(Oc5ccc(C(=O)N6CCO[C@H](CCC(=O)O)C6)cc5)cc4)C[C@@H]3C2)NC(c2nccs2)=N[C@H]1c1ccc(F)cc1Cl [Example 74, 3-((R)-4-(4-(4-(((S)-7-((R)-6-(2-chloro-4-fluorophenyl)-5-(methoxycarbonyl)-2-(thiazol-2-yl)-3,6-dihydropyrimidin-4-yl)methyl)-3-oxohexahydroimidazo[1,5-a]pyrazin-2(3H)-yl)phenoxy)benzoyl)morpholin-2-yl)propanoic acid]	> 150	30.7
COC(=O)C1=C(CN2CCN3C(=O)N(c4ccc(N5CCOC(C(=O)O)C5)cc4)C[C@@H]3C2)NC(c2nccs2)=N[C@H]1c1ccc(F)cc1Cl (stereo partly drawn) [Example 77, 4-(4-((S)-7-(((R)-6-(2-chloro-4-fluorophenyl)-5-(methoxycarbonyl)-2-(thiazol-2-yl)-3,6-dihydropyrimidin-4-yl)methyl)-3-oxohexahydroimidazo[1,5-a]pyrazin-2(3H)-yl)phenyl)morpholine-2-carboxylic acid]	> 150	9.7
COC(=O)C1=C(CN2CCN3C(=O)N(c4ccc(Oc5cc(F)cc(C(=O)O)c5)cn4)C[C@@H]3C2)NC(c2nccs2)=N[C@H]1c1ccc(F)cc1Cl [Example 79, 3-((6-((S)-7-(((R)-6-(2-chloro-4-fluorophenyl)-5-(methoxycarbonyl)-2-(thiazol-2-yl)-3,6-dihydropyrimidin-4-yl)methyl)-3-oxohexahydroimidazo[1,5-a]pyrazin-2(3H)-yl)pyridin-3-yl)oxy)-5-fluorobenzoic acid]	> 150	29
COC(=O)C1=C(CN2CCN3C(=O)N(c4ccc(=O)n(-c5ccc(C(=O)O)cc5F)c4)C[C@@H]3C2)NC(c2nccs2)=N[C@H]1c1ccc(F)cc1Cl [Example 80, 4-(5-((S)-7-(((R)-6-(2-chloro-4-fluorophenyl)-5-(methoxycarbonyl)-2-(thiazol-2-yl)-3,6-dihydropyrimidin-4-yl)methyl)-3-oxohexahydroimidazo[1,5-a]pyrazin-2(3H)-yl)-2-oxopyridin-1(2H)-yl)-3-fluorobenzoic acid]	> 150	15.8
COC(=O)C1=C(CN2CCN3C(=O)N(c4cc(F)cc(Oc5ccc(C(=O)O)cc5F)c4)C[C@@H]3C2)NC(c2nccs2)=N[C@H]1c1cccc(F)c1Cl [Example 90, 4-(3-((S)-7-(((R)-6-(2-chloro-3-fluorophenyl)-5-(methoxycarbonyl)-2-(thiazol-2-yl)-3,6-dihydropyrimidin-4-yl)methyl)-3-oxohexahydroimidazo[1,5-a]pyrazin-2(3H)-yl)-5-fluorophenoxy)-3-fluorobenzoic acid]	> 150	12.5
COC(=O)C1=C(CN2CCN3C(=O)N(c4ccc(Sc5ccc(C(=O)O)cc5)cc4)C[C@@H]3C2)NC(c2nccs2)=N[C@H]1c1ccc(F)cc1Cl [Example 91, 4-((4-((S)-7-(((R)-6-(2-chloro-4-fluorophenyl)-5-(methoxycarbonyl)-2-(thiazol-2-yl)-3,6-dihydropyrimidin-4-yl)methyl)-3-oxohexahydroimidazo[1,5-a]pyrazin-2(3H)-yl)phenyl)thio)benzoic acid]	> 150	37.7
COC(=O)C1=C(CN2CCN3C(=O)N(c4cc(F)cc(Oc5ccc(C(=O)O)cc5F)c4)C[C@@H]3C2)NC(c2nccs2)=N[C@H]1c1ccccc1Cl [Example 93, 4-(3-((S)-7-(((R)-6-(2-chlorophenyl)-5-(methoxycarbonyl)-2-(thiazol-2-yl)-3,6-dihydropyrimidin-4-yl)methyl)-3-oxohexahydroimidazo[1,5-a]pyrazin-2(3H)-yl)-5-fluorophenoxy)-3-fluorobenzoic acid]	> 150	21.5
COC(=O)C1=C(CN2CCN3C(=O)N(c4ccc(Oc5ccc(C#N)cc5)cc4)C[C@@H]3C2)NC(c2nccs2)=N[C@H]1c1ccc(F)cc1Cl [Example 97, (R)-methyl 4-(2-chloro-4-fluorophenyl)-6-(((S)-2-(4-(4-cyanophenoxy)phenyl)-3-oxohexahydroimidazo[1,5-a]pyrazin-7(1H)-yl)methyl)-2-(thiazol-2-yl)-1,4-dihydropyrimidine-5-carboxylate]	> 150	36.8
COC(=O)C1=C(CN2CCN3C(=O)N(c4ccc(Sc5ccc(C#N)cc5)cc4)C[C@@H]3C2)NC(c2nccs2)=N[C@H]1c1ccc(F)cc1Cl [Example 98, (R)-methyl 4-(2-chloro-4-fluorophenyl)-6-(((S)-2-(4-((4-cyanophenyl)thio)phenyl)-3-oxohexahydroimidazo[1,5-a]pyrazin-7(1H)-yl)methyl)-2-me (thiazol-2-yl)-1,4-dihydropyrimidine-5-carboxylate]	> 150	11.9
COC(=O)C1=C(CN2CCN3C(=O)N(c4ccc(Oc5ccc(CO)cc5)cc4)C[C@@H]3C2)NC(c2nccs2)=N[C@H]1c1ccc(F)cc1Cl [Example 99, (R)-methyl 4-(2-chloro-4-fluorophenyl)-6-(((S)-2-(4-(4-(hydroxymethyl)phenoxy)phenyl)-3-oxohexahydroimidazo[1,5-a]pyrazin-7(1H)-yl)methyl)-2-(thiazol-2-yl)-1,4-dihydropyrimidine-5-carboxylate]	> 150	12.6
COC(=O)C1=C(CN2CCN3C(=O)N(c4ccc(Oc5ccc(C(C)(C)O)cc5)cc4)C[C@@H]3C2)NC(c2nccs2)=N[C@H]1c1ccc(F)cc1Cl [Example 100, (R)-methyl 4-(2-chloro-4-fluorophenyl)-6-(((S)-2-(4-(4-(2-hydroxyprop-2-yl)phenoxy)phenyl)-3-oxohexahydroimidazo[1,5-a]pyrazin-7(1H)-yl)methyl)-2-(thiazol-2-yl)-1,4-dihydropyrimidine-5-carboxylate]	> 150	16.8
COC(=O)C1=C(CN2CCN3C(=O)N(Cc4ccc(Oc5ccc(C#N)cc5)cc4)C[C@@H]3C2)NC(c2nccs2)=N[C@H]1c1ccc(F)cc1Cl [Example 102, (R)-methyl 4-(2-chloro-4-fluorophenyl)-6-(((S)-2-(4-(4-cyanophenoxy)benzyl)-3-oxohexahydroimidazo[1,5-a]pyrazin-7(1H)-yl)methyl)-2-(thiazol-2-yl)-1,4-dihydropyrimidine-5-carboxylate]	> 150	4.2
COC(=O)C1=C(CN2CCN3C(=O)N(c4ccc(Oc5ccc(OC)cc5)cc4)C[C@@H]3C2)NC(c2nccs2)=N[C@H]1c1ccc(F)cc1Cl [Example 103, (R)-methyl 4-(2-chloro-4-fluorophenyl)-6-(((S)-2-(4-(4-methoxyphenoxy)phenyl)-3-oxohexahydroimidazo[1,5-a]pyrazin-7(1H)-yl)methyl)-2-me (thiazol-2-yl)-1,4-dihydropyrimidine-5-carboxylate]	> 150	19.4

Source: patent US11142527B2, “Dihydropyrimidine compounds and uses thereof in medicine” (SUNSHINE LAKE PHARMA CO., LTD., priority 2017, dated 2021)
